Measured values reported in the supplement of paper PMC13380429.

What was measured:
Details in all cases: 72 h
[1] = test system: Calu-3; test: drug sensitivity score (DSS) for viability; higher = more toxic; extreme values may be limits of the assay
[2] = test system: Vero E6; test: as above
[3] = test system: U2OS; test: as above
[4] = test system: HepG2; test: as above
[5] = test system: Caco-2; test: as above
[6] = test system: Calu-3; test: cell viability relative to DMSO; higher = less toxic
[7] = test system: Vero E6; test: as above
[8] = test system: U2OS; test: as above
[9] = test system: HepG2; test: as above
[10] = test system: Caco-2; test: as above
[11] = test system: Calu-3; test: relative viability EC50 (midpoint between 100% and the lowest measured viability); higher = less toxic
[12] = test system: Vero E6; test: as above
[13] = test system: U2OS; test: as above
[14] = test system: HepG2; test: as above
[15] = test system: Caco-2; test: as above

Row | SMILES | drug sensitivity score [1] | drug sensitivity score [2] | drug sensitivity score [3] | drug sensitivity score [4] | drug sensitivity score [5] | cell viability ([6]; 1 nM) [%] | cell viability ([6]; 10 nM) [%] | cell viability ([6]; 100 nM) [%] | cell viability ([6]; 1000 nM) [%] | cell viability ([6]; 10000 nM) [%] | cell viability ([7]; 1 nM) [%] | cell viability ([7]; 10 nM) [%] | cell viability ([7]; 100 nM) [%] | cell viability ([7]; 1000 nM) [%] | cell viability ([7]; 10000 nM) [%] | cell viability ([8]; 1 nM) [%] | cell viability ([8]; 10 nM) [%] | cell viability ([8]; 100 nM) [%] | cell viability ([8]; 1000 nM) [%] | cell viability ([8]; 10000 nM) [%] | cell viability ([9]; 1 nM) [%] | cell viability ([9]; 10 nM) [%] | cell viability ([9]; 100 nM) [%] | cell viability ([9]; 1000 nM) [%] | cell viability ([9]; 10000 nM) [%] | cell viability ([10]; 1 nM) [%] | cell viability ([10]; 10 nM) [%] | cell viability ([10]; 100 nM) [%] | cell viability ([10]; 1000 nM) [%] | cell viability ([10]; 10000 nM) [%] | relative viability EC50 [11] [µM] | relative viability EC50 [12] [µM] | relative viability EC50 [13] [µM] | relative viability EC50 [14] [µM] | relative viability EC50 [15] [µM]
1 | CC(C)c1cc(-c2ccc(F)c3ccccc23)nc(N)n1 | 0 | 0 | 0 | 0 | 0 | 80.3 | 103 | 99.7 | 107 | 108 | 94.1 | 98.6 | 98.8 | 102 | 107 | 93.1 | 96.6 | 98.7 | 97.9 | 100 | 103 | 119 | 99.2 | 99.3 | 113 | 90.7 | 101 | 102 | 92.7 | 101 | > 10 | > 10 | > 10 | > 10 | > 10
2 | CC1(C)OC[C@H](NC(=O)Nc2ccc(Br)cc2Br)[C@H](c2ccccc2)O1 | 0 | 0 | 0 | 0 | 0.1 | 99.1 | 89.6 | 111 | 103 | 92.8 | 102 | 101 | 101 | 93.9 | 95.7 | 93.3 | 98 | 96.6 | 98.5 | 89.6 | 95.4 | 89.8 | 93.6 | 91.1 | 95.5 | 94.5 | 98.8 | 95.3 | 103 | 85.8 | > 10 | > 10 | > 10 | > 10 | > 10
3 | CNC(=O)c1ccc2c(c1)CCO[C@H]2CCN1CCN(c2ccc(C(N)=O)cc2)CC1 | 0 | 0 | 0 | 0 | 0 | 99.7 | 81.1 | 95.2 | 107 | 100 | 105 | 102 | 104 | 99.1 | 107 | 99.5 | 106 | 100 | 103 | 101 | 103 | 104 | 95.2 | 98.9 | 99.6 | 94.9 | 105 | 91.9 | 102 | 97.1 | > 10 | > 10 | > 10 | > 10 | > 10
4 | COC(=O)[C@H](NC(=O)c1cc(-c2ccccc2)nc2ccccc12)c1ccccc1 | 0 | 0 | – | 0 | 0 | 104 | 93 | 101 | 102 | 103 | 92.6 | 91.3 | 91.5 | 92.7 | 100 | – | – | – | – | – | 91.4 | 99.6 | 96.4 | 89.6 | 103 | 110 | 94.9 | 106 | 104 | 109 | > 10 | > 10 | – | > 10 | > 10
5 | COc1cc(OC)c(NC(=O)Nc2cc(C)on2)cc1Cl | 0 | 0 | 0 | 0 | 0 | 86.7 | 98.4 | 97.2 | 95.1 | 90 | 99 | 104 | 102 | 104 | 96.8 | 97 | 99.9 | 97.2 | 98.4 | 97.4 | 102 | 108 | 97 | 110 | 103 | 98.9 | 102 | 90.3 | 96.3 | 90 | > 10 | > 10 | > 10 | > 10 | > 10
6 | COc1cc(Oc2ccnc3cc(OC)c(OC)cc23)ccc1NC(=O)NC(C)c1nccs1 (stereo unspecified) | 0 | 0 | 0 | 0 | 0 | 94.5 | 98.7 | 91.6 | 113 | 97.3 | 100 | 101 | 91 | 96.2 | 95.6 | 95.1 | 98.8 | 93.8 | 95.6 | 90.1 | 93.1 | 104 | 91.7 | 98.8 | 87.9 | 100 | 104 | 87.7 | 97.2 | 88.2 | > 10 | > 10 | > 10 | > 10 | > 10
7 | COc1cc2c(cc1OC)-c1cc3nc4ccccc4nc3n1C(C)(C)C2 | 0 | 0 | – | 1.8 | 0 | 104 | 103 | 99.8 | 95.2 | 97.3 | 108 | 102 | 104 | 92.2 | 107 | – | – | – | – | – | 98.7 | 83.6 | 89.7 | 95.1 | 76.2 | 97.9 | 103 | 106 | 99.1 | 89.1 | > 10 | > 10 | – | > 10 | > 10
8 | COc1ccc(S(=O)(=O)Nc2cc(Cl)cc(Cl)c2OC)cc1N1CCNCC1 | 0 | 0 | 0 | 0 | 0 | 99 | 103 | 99.2 | 106 | 111 | 102 | 103 | 99.1 | 98.7 | 91.2 | 109 | 98 | 105 | 96.3 | 100 | 98.9 | 90.2 | 103 | 98.7 | 102 | 102 | 97.9 | 97.9 | 92.9 | 94.7 | > 10 | > 10 | > 10 | > 10 | > 10
9 | CS(=O)(=O)N1CCc2c(-c3cnc(N)nc3)nc(N3CCOCC3)nc21 | 7.6 | 5.2 | 4.2 | 6.9 | 7 | 94.2 | 96.3 | 98.2 | 70.5 | 29.3 | 104 | 108 | 95.3 | 87.4 | 41.7 | 99.5 | 97.5 | 99.9 | 92 | 47.1 | 111 | 101 | 95.3 | 72.6 | 33.3 | 93.3 | 97.6 | 96.9 | 72 | 33.3 | 1.17 | 1.67 | 1.98 | 1.22 | 1.19
10 | C[C@@H](Oc1ccc2[nH]nc(/C=C/c3cnn(CCO)c3)c2c1)c1c(Cl)cncc1Cl | 7.2 | 8.9 | 14 | 12.1 | 6.1 | 101 | 99.9 | 98.6 | 75.5 | 31.8 | 95.3 | 92.4 | 98.6 | 71.9 | 12.7 | 94.3 | 94.3 | 91 | 33.5 | 0.2 | 108 | 102 | 85.5 | 46.4 | 10.6 | 87.3 | 99.5 | 91.5 | 83.3 | 33.1 | 1.26 | 1.35 | 0.582 | 0.617 | 1.61
11 | C[C@H](NC[C@H](O)CP(=O)(O)CC1CCCCC1)c1ccc(Cl)c(Cl)c1 | 0 | 0 | 0 | 0 | 0 | 76.5 | 104 | 95.2 | 102 | 91.7 | 107 | 101 | 104 | 98.7 | 104 | 94.6 | 102 | 94.2 | 101 | 99.8 | 103 | 97.6 | 99.3 | 98.6 | 96.8 | 96.1 | 92.1 | 93.9 | 99.5 | 91.4 | > 10 | > 10 | > 10 | > 10 | > 10
12 | C[C@H](c1ccc(F)cc1CCCC(=O)O)N(c1cc(F)ccc1F)S(=O)(=O)c1ccc(Cl)cc1 | 0 | 0 | 0 | 0 | 0.1 | 105 | 98.9 | 99.4 | 103 | 103 | 103 | 100 | 102 | 103 | 98.8 | 101 | 93.5 | 97.8 | 93.1 | 96.2 | 93.1 | 103 | 94 | 98.8 | 93.6 | 101 | 97.5 | 112 | 92.6 | 89.5 | > 10 | > 10 | > 10 | > 10 | > 10
13 | Cc1cccc(-c2nn3c(c2-c2ccnc4ccc(C(N)=O)cc24)CCC3)n1 | 0 | 0 | 0 | 0 | 0 | 95.4 | 108 | 91.4 | 105 | 113 | 98.9 | 99 | 101 | 99.9 | 113 | 98.3 | 99.5 | 95.8 | 96 | 92.6 | 103 | 96.5 | 106 | 99.4 | 106 | 96.9 | 87.8 | 93.1 | 100 | 109 | > 10 | > 10 | > 10 | > 10 | > 10
14 | N=C(N)NCCC[C@H](NC(=O)c1sccc1NS(=O)(=O)c1cccc2nsnc12)C(=O)O | 0 | 0 | 0 | 0 | 0 | 92.7 | 110 | 106 | 117 | 110 | 105 | 103 | 101 | 98.4 | 97.1 | 98.3 | 102 | 96.3 | 105 | 98.4 | 105 | 101 | 95.8 | 105 | 103 | 96.9 | 104 | 98.5 | 101 | 105 | > 10 | > 10 | > 10 | > 10 | > 10
